{"source": "BindingDB's records for doi:10.1021/jm9606507", "about": "(Warner-Lambert, 1997)", "experiment": "Inhibition of Endothelin A receptor mediated (ET-1) release of arachidonic acid from rabbit renal artery vascular smooth muscle cells", "data": [{"molecule": "COc1ccc(C(=O)/C(Cc2cc(OC)c(OC)c(OC)c2)=C(\\C(=O)O)c2ccc3c(c2)OCO3)cc1C", "note": "[Sodium; (Z)-2-benzo[1,3]dioxol-5-yl-4-(4-methoxy-3-methyl-phenyl)-4-oxo-3-(3,4,5-trimethoxy-benzyl)-but-2-enoate]", "values": [{"measurement": "IC50", "result": 0.98, "unit": "nM"}]}]}
